Test system: 993429-296-R-J1-PDC complex spheroid growth, percent test/control
Experiment: Anticancer human tumor 993429-296-R-J1-PDC patient-derived uterine sarcoma cell line growth inhibition [Asc]
Conditions: for IC50: curve of first compound; for viability, T/C: stronger effect = lower value; active = viability on the fitted dose curve at most 10% of control; inactive = the rest
Method: Multicellular complex tumor spheroid response to apoptosis pathway targeting inhibitors Alrizomadlin, Pelcitoclax, and Dasminapant in combination with a variety of drugs and investigational agents in selected tumor cell lines
The MDM2 inhibitor alrizomadlin, the Bcl-2/Bcl-xL inhibitor pelcitoclax, and the IAPs inhibitor dasminapant were evaluated both individually and in combination with standard of care and investigational anticancer small molecules within a complex spheroid model of solid tumors. . Complex spheroids include a stromal component modeled by human endothelial cells (HUVEC) and fibroblasts modeled by human mesenchymal stem cells (MSCs). The concentration ranges selected for each drug and investigational agent were based upon clinically achievable concentrations if the clinical Cmax of the agent was known.
Compounds. The drugs and investigational agents: alrizomadlin (APG-115; NSC831270), pelcitoclax (APG-1252; NSC835773), dasminapant (APG-1387;NSC834197), TAK-243 (NSC785004), copanlisib (NSC809693), olaparib (NSC753686), talazoparib (NSC767125), cobimetinib (NSC 768068), eltanexor (KPT-8602, NSC 794443), abemaciclib (NSC 768073), sotorasib (NSC818433), adagrasib (NSC 831453), MRTX-1133 (NSC 836407), Iadademestat (ORY1001, NSC 806812), and RMC-4630 (NSC839698), were obtained from the NCI Developmental Therapeutics Program Chemical Repository. The FDA-approved anticancer drug set is available from the Developmental Therapeutics Program at https://dtp.cancer.gov/organization/dscb/obtaining/available plates.htm. […] The stock solutions were prepared in dimethyl sulfoxide (DMSO, Sigma-Aldrich, St. Louis, MO, cat. D2650) at 800-fold the tested concentration and stored at -70 degrees C prior to their use. All drugs and investigational agents were tested over a range starting from a high concentration at or near the clinical Cmax and decreasing in half-log increments. If the clinical Cmax for an agent had not been determined, the highest concentration tested was 10 microM.
The patient-derived cancer (PDC) cell lines include five colon adenocarcinomas: 186277-243-T-J2-PDC, 616215-338-R-J1-PDC, 439559-082-T-J2-PDC, 463943-066-T-J2-PDC, and 519858-162-T-J1-PDC; three pancreatic carcinomas: 323965-272-R-J2-PDC, 521955-158-R6-J3-PDC, and 521955-158-R2-J5-PDC; two uterine sarcomas: 327498-152-R-J2-PDC and 993429-296-R-J1-PDC; two rhabdomyosarcomas: 755483-174-R-J1-PDC and 772245-204-R-J1-PDC; two soft tissue sarcomas: 126254-015-R-J1-PDC and 494315-158-R-J1-PDC; two malignant fibrous histiocytomas: 317291-083-R-J1-PDC and 596521-263-R-J1-PDC; two breast carcinomas: 171881-019-R-J1-PDC and 885512-296-R-J2-PDC; and one ovarian carcinoma: 6556581-035-R-J-PDC were obtained from the NCI PDMR, (https://pdmr.cancer.gov). The established cell lines HSSY-2 synovial sarcoma (RRID:CVCL 8719), SYO-1 synovial sarcoma (RRID:CVCL_7146), MPNST malignant peripheral neural sheath tumor were obtained from the Sloan Kettering Institute. The following established cell lines were purchased from the American Type Culture Collection (ATCC, Manassas, VA), Sor the received from the NCI repository:, PANC-1 pancreatic carcinoma (CRL-1469, RRID:CVCL_0480), OVCAR-5 ovarian carcinoma (RRID:CVCL_1628), OVCAR-8 ovarian carcinoma (RRID:CVCL_1629), , MCF-7 breast carcinoma (CRL-12584, RRID:CVCL_0031), MDA-MB-231 breast carcinoma (CRL-12532, RRID:CVCL_0062), NCI-H1876 small cell lung carcinoma (CRL-5902, RRID:CVCL_1503), NCI-H510A small cell lung carcinoma (HTB-184, RRID:CVCL_1565), NCI-H1417 (CRL-5869, RRID:CVCL_1469), and NCI-H196 small cell lung carcinoma (CRL-5823, RRID:CVCL_1509). Dr. Peter Houghton (Greehey Children's Cancer Research Institute, University of Texas Health Science Center, San Antonio, TX) provided Rh-18 rhabdomyosarcoma (RRID:CVCL_1659). Pooled donor human umbilical vein endothelial cells (HUVEC, Lonza, cat. CC-2519) and human mesenchymal stem cells (hMSC, Lonza, cat. PT-2501) were purchased from Lonza (Walkersville, MD).
Cell Culture. […]

[1] = second compound 0.03 µM, first compound 0.0316 µM
[2] = second compound 0.03 µM, first compound 0.1 µM
[3] = second compound 0.0949 µM, first compound 0.0316 µM
[4] = second compound 0.0949 µM, first compound 0.1 µM
[5] = second compound 0.3 µM, first compound 0.0316 µM
[6] = second compound 0.3 µM, first compound 0.1 µM
[7] = second compound 0.949 µM, first compound 0.0316 µM
[8] = second compound 0.949 µM, first compound 0.1 µM
[9] = second compound 3 µM, first compound 0.0316 µM
[10] = second compound 3 µM, first compound 0.1 µM
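Also: spheroids exposed to compounds for seven days.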

Cn1ncnc1[C@H]1c2n[nH]c(=O)c3cc(F)cc(c23)N[C@@H]1c1ccc(F)cc1 + CCN1C(C(=O)NC23CCC(C(=O)O)(CC2)CC3)C(c2cccc(Cl)c2F)C2(C(=O)Nc3cc(Cl)ccc32)C12CCCCC2
0.0758 µM: IC50 (second compound 0.0949 µM)
0.0662 µM: IC50 (second compound 3 µM)
> 0.1 µM: IC50 (second compound 0.03 µM) | IC50 (second compound 0.949 µM)
0.0653 µM: IC50 (second compound 0.3 µM)
inactive: viability, T/C (second compound 0.03 µM, first compound 0.000316 µM) 114% | viability, T/C (second compound 0.03 µM, first compound 0.001 µM) 107% | viability, T/C (second compound 0.03 µM, first compound 0.00316 µM) 104% | viability, T/C (second compound 0.03 µM, first compound 0.01 µM) 62% | viability, T/C [1] 62% | viability, T/C [2] 45.1% | viability, T/C (second compound 0.0949 µM, first compound 0.000316 µM) 94% | viability, T/C (second compound 0.0949 µM, first compound 0.001 µM) 102% | viability, T/C (second compound 0.0949 µM, first compound 0.00316 µM) 89.4% | viability, T/C (second compound 0.0949 µM, first compound 0.01 µM) 73.6% | viability, T/C [3] 64.6% | viability, T/C [4] 45.4% | viability, T/C (second compound 0.3 µM, first compound 0.000316 µM) 96.5% | viability, T/C (second compound 0.3 µM, first compound 0.001 µM) 104% | viability, T/C (second compound 0.3 µM, first compound 0.00316 µM) 90.6% | viability, T/C (second compound 0.3 µM, first compound 0.01 µM) 77.3% | viability, T/C [5] 66% | viability, T/C [6] 41.4% | viability, T/C (second compound 0.949 µM, first compound 0.000316 µM) 109% | viability, T/C (second compound 0.949 µM, first compound 0.001 µM) 101% | viability, T/C (second compound 0.949 µM, first compound 0.00316 µM) 92.3% | viability, T/C (second compound 0.949 µM, first compound 0.01 µM) 65.1% | viability, T/C [7] 59.9% | viability, T/C [8] 48% | viability, T/C (second compound 3 µM, first compound 0.000316 µM) 91.5% | viability, T/C (second compound 3 µM, first compound 0.001 µM) 91.8% | viability, T/C (second compound 3 µM, first compound 0.00316 µM) 82.8% | viability, T/C (second compound 3 µM, first compound 0.01 µM) 72.5% | viability, T/C [9] 61.5% | viability, T/C [10] 43.9%

O=C(c1cc(Cc2n[nH]c(=O)c3ccccc23)ccc1F)N1CCN(C(=O)C2CC2)CC1 + CCN1C(C(=O)NC23CCC(C(=O)O)(CC2)CC3)C(c2cccc(Cl)c2F)C2(C(=O)Nc3cc(Cl)ccc32)C12CCCCC2
inactive: viability, T/C [1] 87.8% | viability, T/C [2] 104% | viability, T/C (second compound 0.03 µM, first compound 0.316 µM) 98% | viability, T/C (second compound 0.03 µM, first compound 1 µM) 100% | viability, T/C (second compound 0.03 µM, first compound 3.16 µM) 66.3% | viability, T/C (second compound 0.03 µM, first compound 10 µM) 39.5% | viability, T/C [3] 109% | viability, T/C [4] 106% | viability, T/C (second compound 0.0949 µM, first compound 0.316 µM) 87.9% | viability, T/C (second compound 0.0949 µM, first compound 1 µM) 113% | viability, T/C (second compound 0.0949 µM, first compound 3.16 µM) 61.9% | viability, T/C (second compound 0.0949 µM, first compound 10 µM) 29.6% | viability, T/C [5] 92% | viability, T/C [6] 100% | viability, T/C (second compound 0.3 µM, first compound 0.316 µM) 99.7% | viability, T/C (second compound 0.3 µM, first compound 1 µM) 78.6% | viability, T/C (second compound 0.3 µM, first compound 3.16 µM) 76.1% | viability, T/C (second compound 0.3 µM, first compound 10 µM) 38.5% | viability, T/C [7] 100% | viability, T/C [8] 113% | viability, T/C (second compound 0.949 µM, first compound 0.316 µM) 88.8% | viability, T/C (second compound 0.949 µM, first compound 1 µM) 81% | viability, T/C (second compound 0.949 µM, first compound 3.16 µM) 62.2% | viability, T/C (second compound 0.949 µM, first compound 10 µM) 32.1% | viability, T/C [9] 96.6% | viability, T/C [10] 90.3% | viability, T/C (second compound 3 µM, first compound 0.316 µM) 78.4% | viability, T/C (second compound 3 µM, first compound 1 µM) 83.1% | viability, T/C (second compound 3 µM, first compound 3.16 µM) 48.3% | viability, T/C (second compound 3 µM, first compound 10 µM) 33.1%
4.84 µM: IC50 (second compound 0.0949 µM)
6.36 µM: IC50 (second compound 0.03 µM)
4.9 µM: IC50 (second compound 0.949 µM)
3.04 µM: IC50 (second compound 3 µM)
6.87 µM: IC50 (second compound 0.3 µM)

— PubChem BioAssay AID1963446 (Molecular Pharmacology Branch, DTP, NCI, 2024)
